Experimental data taken from patent US6777408B1, “Pyrido-thieno-diazepines method for the production thereof and pharmaceutical compositions containing said pyrido-thieno-diazepines” (Societe de Conseils de Recherches et d'Applications …, priority 1999, dated 2004).

melting point [°C]	SMILES
128 to 130	O=C1CNC(c2ccccc2Cl)c2c(sc3c2CCNC3)N1CCc1ccccc1 (stereo not drawn) [Example 13, 5-(2-chlorophenyl)-1,3,4,5,6,7,8,9-octahydro-1-(2-phenylethyl)-2H-pyrido[4′,3′:4,5]thieno[2,3-e]-1,4-diazepine-2-one]
152	COc1ccc(NC(=S)N2CCc3c(sc4c3C(c3ccccc3Cl)=NCC(=S)N4CCc3ccccc3)C2)c([N+](=O)[O-])c1
90 to 95	COc1ccc(NC(=S)N2CCc3c(sc4c3C(c3ccccc3Cl)=NC(OC(=O)CCCCCCN)C(=O)N4CCc3ccccc3)C2)c([N+](=O)[O-])c1 (stereo not drawn) [Example 8, 3-(7-amino-1-oxo-heptyloxy)-5-(2-chlorophenyl)-1,2,3,6,7,9-hexahydro-N-(4-methoxy-2-nitrophenyl)-2-oxo-1-(2-phenylethyl)-8H-pyrido[4′,3′:4,5]thieno[2,3-e]-1,4-diazepine-8-carbothioamide]
